“Also recorded” adds a separate entry of the source. Read-outs that look alike come from different tables or passages of the source.
Experiments:
[1] = Tracer injection into uncontaminated secondary column (Example 3); format: physicochemical; conditions: for adsorption: inferred; for mean residence time: method of moments
Method: A secondary, uncontaminated column was packed and configured in the same manner as the contaminated column. The only modification made to this column was that the volume of water was equal to the volume of water plus TCE in the primary column. This secondary column was used to observe tracer behavior in an uncontaminated environment.
Before tracer injection began in the primary column, argon and C6 F12 were injected into the secondary column. Their breakthrough curves are plotted in FIG. 3. Using this procedure, the gas saturation in the secondary column would be similar to that in the primary column. The secondary column was first allowed to equilibrate. […] The C6 F12 was injected as a liquid through the heated injection port. The injector temperature was 40° C.; the liquid was vaporized and moved through the column as a gas. […] When mixed with air, however, they become gases.
The mean residence times should be equal since there is no TCE for the tracer to partition into. […] The flatness of the peak is believed to be a result of the fact that the liquid vaporizes slowly.

[2] = Partitioning tracer column experiment, Ottawa sand contaminated with TCE, air carrier (Example 3); conditions: for Mean Residence Times ti / Mean Residence Times ti (cc) / Activity Coefficient, γi: 0.45 cc/min; for Activity Coefficient, γi: in TCE, ideal Ki / experimental Ki; for partitioning into TCE (in words): Ottawa sand column
Method: Three columns were prepared for each experiment: (1) a contaminated primary column (2.5 cm×30 cm) saturated with residual water and TCE; (2) a contaminated pre-column (2.5 cm×60 cm) saturated with water and TCE; and (3) an uncontaminated secondary column (2.5 cm×30 cm) saturated only with water.
The primary column was mounted in a vertical configuration and a burette with 100 cc of deionized water was mounted above the column and attached to the inlet. The valve on the burette was opened and water was allowed to gravity drain into the column. After approximately one pore volume of water had entered the column, the burette was disconnected and the column was allowed to continue to gravity drain. Air was flushed through the column to displace any mobile water. The difference between the water injected and the water produced was used to determine the residual water saturation.
Next, approximately 5 cc of TCE, enough to produce a residual saturation, was injected into the primary column using a syringe and allowed to gravity drain. After draining overnight, the column was weighed for a more accurate estimate of TCE saturation. […] In both cases, water and TCE injection, the pre-column was treated in the same manner. However, larger amounts of water and TCE were injected since the pre-column is twice as large.
The primary column and pre-column were plumbed into the flowpath. Air flow was through the precolumn, past the reference side of the thermal conductivity detector (TCD), to the test column and then to the measurement side of the TCD. Two injectors, one for the gas tracers (Valco Instruments'switching valve with sample loop) and one for liquid tracers (heated injection port) were located between the reference side of the TCD and the test column. Flow rates were adjusted by the use of a snubber valve located between the precolumn and TCD. Flow rates were monitored and measured by a combination of rotameters and a bubble meter. The TCD measures the difference between the reference stream and the effluent of the test column. Additionally, water-filled manometers were affixed to each end of the column to measure pressure drops across the column.
Approximately 4 to 8 hours was required for the air stream to equilibrate and for a stable baseline to be established. When the baseline was stable, tracer injections began. Data collected from the TCD were integrated and the integration values stored to computer files data acquisition software.
After the uncontaminated column experiment had been completed, the contaminated column experiments were begun. […] The mean residence time for production of each tracer was calculated from the response curves using the method of moments. This value can be expressed in minutes or converted to volume units by multiplying by the flow rate.

[3] = Batch equilibrium measurement of the partition coefficient with TCE; format: physicochemical
Text: Since a rate dependence was observed, the rate was lowered to 0.08 cc/min and the experiment repeated for C4 F8. In addition, a batch equilibrium measurement of the partition coefficient was made for this tracer. […] The residence time at 0.45 cc/min is about two hours and several times this may be required for equilibrium partitioning. As the partition coefficient increases, so does the residence time, so the heavier tracers should be less effected by nonequilibrium partitioning. In any case, once suitable tracers have been identified, as has been done here, either batch experiments or experiments at low rates or in longer columns (to give long residence times) can be conducted to determine the equilibrium partitioning coefficients needed for field application (assuming the residence time for the field test is long compared to the column test).

[4] = Partitioning tracer column experiment, field soil contaminated with TCE; format: physicochemical; conditions: for Activity Coefficient, γi, in field soil: field soil contaminated with TCE
[5] = cited from earlier work
[6] = Partitioning tracer column experiment, PCE-contaminated water-saturated Ottawa sand (Example 1); format: physicochemical; conditions: water-saturated sand with residual PCE
Method: A soil column experiment was performed to illustrate the use of partitioning tracers to detect DNAPL in a saturated zone. A Kontes preparative chromatography column made of borosilicate glass (4.8 cm ID) was packed with-mesh sizes of 60 to 200 Ottawa sand and saturated with water at 23° C. The length of this sandpack was 12.24 cm. The porosity and intrinsic permeability to water were measured and found to be 0.329 and 5.84 Darcy, respectively. […] Two alcohol tracers were added to the water and 0.52 pore volumes of water containing these tracers were injected at 0.316 ml/min followed by several more pore volumes of water until the alcohols could no longer be detected in the effluent. […] The partition coefficients of each of these alcohols were determined by equilibrating samples containing in the range of 100 to 1,000 mg/l of both alcohols with equal volumes of water and PCE and measuring the alcohol concentrations in each phase using a gas chromatograph. […]
The separation of the two curves gives an unmistakable signal that the sand is contaminated with PCE. […] This value agrees with the value measured from a mass balance on the PCE within the experimental error of each of the measurements. The tracer curves were then numerically simulated using this value and the measured partition coefficients and these are the curves shown in FIG. 1. […]

[7] = Partitioning tracer column experiment after surfactant remediation of the sand (Example 2); format: physicochemical; conditions: no NAPL present
Text: The contaminated sand from Example 1 was cleaned by flushing the sand with an aqueous solution of surfactant until all the trichloroethene was removed to thereby simulate a successful remediation. The procedure of Example 1 was then repeated.

[8] = water; cited from earlier work

Compound | Mean Residence Times ti ([2]; Ottawa sand, TCE) [min] | Mean Residence Times ti (cc) ([2]; Ottawa sand, TCE) | Activity Coefficient, γi, in field soil [4] | Activity Coefficient, γi ([2]; Ottawa sand) | Vapor Press ([5]; @ 25 ° C.) [psi] | further results
[Ar] [Argon] | 93.2 | 41.9 | – | – | – | adsorption [1]: negligible; mean residence time [1]: 45 cc
FC1(F)C(F)(F)C(F)(F)C1(F)F [C4 F8, Octafluorocyclobutane] | 131.4 | 59.1 | 20.8 | 26.6 | – | partition coefficient, batch equilibrium [3]: about 4.7; Vapor Press ([5]; @ 21 ° C.): 40 psi; partition coefficient at 0.08 cc/min ([2]; 0.08 cc/min, Ottawa sand, TCE): about 4.7
FC1=C(F)C(F)(F)C(F)(F)C1(F)F [C5 F8, Octafluorocyclopentene] | 235.0 | 105.8 | 17.2 | 20.3 | 12.7 | –
FC(F)(F)C1(F)C(F)(F)C(F)(F)C(F)(F)C(F)(F)C1(F)F [C7 F14, perfluoromethylcyclohexane] | 362.6 | 163.2 | 52.6 | 58.3 | 2.1 | –
FC(F)(F)C1(F)C(F)(F)C(F)(F)C(F)(F)C(F)(C(F)(F)F)C1(F)F (stereo not shown) [C8 F16, perfluoro-1,3-dimethylcyclohexane] | 1055.0 | 474.8 | 89.7 | 63.1 | 0.67 | –
FC(F)(F)F [CF4, Carbon Tetrafluoride] | 95.1 | 42.8 | – | – | – | partitioning into TCE in field soil (in words) ([4]; field soil): negligible partitioning; partitioning into TCE (in words) [2]: essentially zero; also recorded: negligible partitioning
CC(C)C(C)(C)O [DMB, 2,3dimethyl 2-butanol] | – | – | – | – | – | partitioning / retardation in PCE-contaminated column [6]: retarded relative to the IPA; tracer travel after remediation (in words) [7]: travel through the sand at the same rate
FS(F)(F)(F)(F)F [SF6, Sulfur Hexafluoride] | 103.7 | 46.7 | 17.2 | 11.6 | – | Vapor Press ([5]; @ 21 ° C.): 334 psi; partitioning into TCE (in words) [2]: small but experimentally significant partitioning
ClC=C(Cl)Cl [TCE, trichloroethylene] | – | – | – | – | – | vapor pressure ([5]; 20° C.): 1.16 psi; aqueous solubility [8]: 1385 milligrams/liter
[3H]O[3H] [tritiated water] | – | – | – | – | – | partitioning / retardation in PCE-contaminated column [6]: does not partition
dodecafluorodimethylcyclobutane [C6 F12] | 204.4 | 92.0 | 45 | 52.0 | 7.2 | adsorption [1]: negligible; mean residence time [1]: 45 cc; factor by which mean residence time differs from argon ([2]; primary column, TCE, Ottawa sand): more than two
